From ChEMBL document CHEMBL1201862, “PubChem BioAssay data set” (2004)
Calls of active or inactive are those of the source.

Tests used:
[1] = OVCAR-3 cell viability loss – plate reader, dry powder samples, PAX8 inhibitor project, dose response (AID 743044); format: functional, cell-based
[2] = viability loss in A549 lung cells – cell-based, 24 h, CellTiter-Glo luminescence, cherry-picks, cytotoxicity control, dose response (AID 1053115); format: functional; settings: A549, 24 h
[3] = general mammalian cell viability loss – inhibitor set, cherry-pick, set 2, cytotoxicity control for miR-122 modulator project, dose response (AID 720697); format: functional, cell-based
[4] = OVCAR8 cell viability loss – plate reader, dry powder samples, PAX8 project, dose response (AID 743197); format: functional, cell-based; settings: OVCAR-8
[5] = toxicity toward immortalized ovarian surface epithelium – cell-based, plate reader, dry powder samples, cytotoxicity control for PAX8 inhibitor project, dose response (AID 743045); format: functional
[6] = general mammalian cell viability loss – activator set, cherry-pick, cytotoxicity control for miR-122 modulator project, dose response (AID 720690); format: functional, cell-based;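 further: HEK293T human cells scored for general mammalian cytotoxicity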
[7] = lung carcinoma cell viability loss – CellTiter-Glo luminescence, dry powder, set 17, dose response (AID 1117284); format: functional, cell-based; settings: A549
Paired box protein Pax-8 = Paired box protein Pax-8 (Homo sapiens, UniProt Q06710); assay: PAX8 transcriptional activity inhibition in RMG-I – RMG-I cells, luciferase, cherry-pick, dose response (AID 687027); format: functional, cell-based;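 further: luciferase reporter driven by Pax8 target thyroperoxidase promoter measured by SteadyGlo luminescence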
Paired box protein Pax-8, sequence (Q06710 whole entry): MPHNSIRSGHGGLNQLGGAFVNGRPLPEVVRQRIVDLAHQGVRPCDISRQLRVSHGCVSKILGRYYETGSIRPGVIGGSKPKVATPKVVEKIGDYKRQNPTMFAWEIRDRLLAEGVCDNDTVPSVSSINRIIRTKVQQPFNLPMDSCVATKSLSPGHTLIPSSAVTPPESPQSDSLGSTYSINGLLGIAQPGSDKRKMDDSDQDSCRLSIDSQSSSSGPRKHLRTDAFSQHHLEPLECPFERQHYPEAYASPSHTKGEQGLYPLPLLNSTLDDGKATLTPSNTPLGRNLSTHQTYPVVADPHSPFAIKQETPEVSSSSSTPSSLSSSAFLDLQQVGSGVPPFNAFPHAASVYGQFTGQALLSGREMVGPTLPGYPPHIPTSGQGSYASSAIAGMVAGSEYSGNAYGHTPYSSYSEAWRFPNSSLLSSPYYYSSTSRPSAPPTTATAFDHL

[8] = IC50 of insulin release inhibition, rat insulinoma INS-1E line, 5 mM glucose, cell-based (AID 1117331); format: functional
cells [9] = format: functional, cell-based; settings: INS-1E
[10] = target: Oxysterols receptor LXR-beta (Homo sapiens, UniProt P55055); format: functional, cell-based;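 further: Cell-based luminescence dose-response assay of agonist activity at LXR, run as a confirmatory counterscreen to a daf-12 agonist screen; HEK293 cells with Gal4-LXR fusion and GAL4-driven luciferase reporter; agonist potency from rising luciferase signal of a Gal4-LXR reporter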
Oxysterols receptor LXR-beta, sequence (P55055 whole entry, the tested form may be a part): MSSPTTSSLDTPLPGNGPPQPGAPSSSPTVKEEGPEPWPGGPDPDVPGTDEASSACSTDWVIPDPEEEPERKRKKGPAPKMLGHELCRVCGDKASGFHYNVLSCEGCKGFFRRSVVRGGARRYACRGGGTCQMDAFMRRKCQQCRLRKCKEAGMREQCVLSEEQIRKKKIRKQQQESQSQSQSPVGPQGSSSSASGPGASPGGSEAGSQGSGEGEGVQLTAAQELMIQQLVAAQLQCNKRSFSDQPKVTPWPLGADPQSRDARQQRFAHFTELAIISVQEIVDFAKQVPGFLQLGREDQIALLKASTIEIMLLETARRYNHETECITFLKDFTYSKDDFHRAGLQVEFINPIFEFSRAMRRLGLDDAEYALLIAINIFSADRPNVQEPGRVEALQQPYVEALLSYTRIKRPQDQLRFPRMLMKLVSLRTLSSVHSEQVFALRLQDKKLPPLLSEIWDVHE

cells [11] = assay: cells
Protein skinhead-1 = target: T1, Protein skinhead-1 (Caenorhabditis elegans, UniProt P34707); format: functional
T1 sequence (P34707 whole entry): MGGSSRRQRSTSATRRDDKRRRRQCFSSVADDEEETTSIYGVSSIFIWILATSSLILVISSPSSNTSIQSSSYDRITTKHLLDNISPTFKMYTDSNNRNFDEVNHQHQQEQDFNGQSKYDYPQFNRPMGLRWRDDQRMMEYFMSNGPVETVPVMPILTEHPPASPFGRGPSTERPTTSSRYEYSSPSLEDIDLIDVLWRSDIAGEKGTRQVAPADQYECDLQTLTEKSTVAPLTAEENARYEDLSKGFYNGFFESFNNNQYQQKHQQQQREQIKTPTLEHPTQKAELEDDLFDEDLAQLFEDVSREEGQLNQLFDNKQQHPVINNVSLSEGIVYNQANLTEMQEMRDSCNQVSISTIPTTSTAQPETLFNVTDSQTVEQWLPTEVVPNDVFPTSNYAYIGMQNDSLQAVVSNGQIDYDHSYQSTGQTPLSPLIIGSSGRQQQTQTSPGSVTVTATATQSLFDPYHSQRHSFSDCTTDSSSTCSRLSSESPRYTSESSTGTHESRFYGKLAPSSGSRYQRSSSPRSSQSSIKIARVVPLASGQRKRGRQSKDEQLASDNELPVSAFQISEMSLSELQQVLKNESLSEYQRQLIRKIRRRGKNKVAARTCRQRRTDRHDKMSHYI

[12] = viability loss in Vero cells – cytotoxicity control for Vif-APOBEC3G degradation inhibitor project, dose response (AID 1117358); format: functional; settings: Vero
[13] = target: Peroxisome proliferator-activated receptor gamma/Nuclear receptor coactivator 1 (Homo sapiens, UniProt P37231); assay: (§1) TR-FRET dose response biochemical High Throughput Screening assay for agonists of the steroid receptor coactivator 1 (SRC-1) recruitment by the peroxisome proliferator-activated receptor gamma (PPAR gamma): non-selective agonists. [Related pubchem assays (depositor defined):AID1300, AID1808, AID504735, AID631]; format: protein assay
[14] = target: Peroxisome proliferator-activated receptor gamma/Nuclear receptor coactivator 3 (Homo sapiens, UniProt P37231); assay: as §1, with “3 (SRC-3)” for “1 (SRC-1)”, “assays: 1301 (Confirmation screen.), 1048 (Primary screen.)]” for “assays (depositor defined):AID1300, AID1808, AID504735, AID631]”; format: functional
Peroxisome proliferator-activated receptor gamma/Nuclear receptor coactivator 3, sequence (P37231 whole entry): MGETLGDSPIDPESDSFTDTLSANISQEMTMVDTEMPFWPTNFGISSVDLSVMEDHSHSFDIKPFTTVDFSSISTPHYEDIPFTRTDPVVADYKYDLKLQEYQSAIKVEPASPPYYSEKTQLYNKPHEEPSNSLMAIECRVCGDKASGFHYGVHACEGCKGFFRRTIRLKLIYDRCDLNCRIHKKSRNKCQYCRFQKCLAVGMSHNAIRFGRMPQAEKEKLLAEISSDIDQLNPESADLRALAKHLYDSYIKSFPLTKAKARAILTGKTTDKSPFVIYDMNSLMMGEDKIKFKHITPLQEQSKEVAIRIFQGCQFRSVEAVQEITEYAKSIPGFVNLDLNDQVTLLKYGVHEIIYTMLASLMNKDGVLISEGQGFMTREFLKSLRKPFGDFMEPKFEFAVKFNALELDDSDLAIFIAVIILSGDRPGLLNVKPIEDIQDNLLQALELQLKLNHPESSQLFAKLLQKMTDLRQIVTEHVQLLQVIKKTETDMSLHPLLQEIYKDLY
Peroxisome proliferator-activated receptor gamma/Nuclear receptor coactivator 3, sequence (Q9Y6Q9 whole entry, further chain): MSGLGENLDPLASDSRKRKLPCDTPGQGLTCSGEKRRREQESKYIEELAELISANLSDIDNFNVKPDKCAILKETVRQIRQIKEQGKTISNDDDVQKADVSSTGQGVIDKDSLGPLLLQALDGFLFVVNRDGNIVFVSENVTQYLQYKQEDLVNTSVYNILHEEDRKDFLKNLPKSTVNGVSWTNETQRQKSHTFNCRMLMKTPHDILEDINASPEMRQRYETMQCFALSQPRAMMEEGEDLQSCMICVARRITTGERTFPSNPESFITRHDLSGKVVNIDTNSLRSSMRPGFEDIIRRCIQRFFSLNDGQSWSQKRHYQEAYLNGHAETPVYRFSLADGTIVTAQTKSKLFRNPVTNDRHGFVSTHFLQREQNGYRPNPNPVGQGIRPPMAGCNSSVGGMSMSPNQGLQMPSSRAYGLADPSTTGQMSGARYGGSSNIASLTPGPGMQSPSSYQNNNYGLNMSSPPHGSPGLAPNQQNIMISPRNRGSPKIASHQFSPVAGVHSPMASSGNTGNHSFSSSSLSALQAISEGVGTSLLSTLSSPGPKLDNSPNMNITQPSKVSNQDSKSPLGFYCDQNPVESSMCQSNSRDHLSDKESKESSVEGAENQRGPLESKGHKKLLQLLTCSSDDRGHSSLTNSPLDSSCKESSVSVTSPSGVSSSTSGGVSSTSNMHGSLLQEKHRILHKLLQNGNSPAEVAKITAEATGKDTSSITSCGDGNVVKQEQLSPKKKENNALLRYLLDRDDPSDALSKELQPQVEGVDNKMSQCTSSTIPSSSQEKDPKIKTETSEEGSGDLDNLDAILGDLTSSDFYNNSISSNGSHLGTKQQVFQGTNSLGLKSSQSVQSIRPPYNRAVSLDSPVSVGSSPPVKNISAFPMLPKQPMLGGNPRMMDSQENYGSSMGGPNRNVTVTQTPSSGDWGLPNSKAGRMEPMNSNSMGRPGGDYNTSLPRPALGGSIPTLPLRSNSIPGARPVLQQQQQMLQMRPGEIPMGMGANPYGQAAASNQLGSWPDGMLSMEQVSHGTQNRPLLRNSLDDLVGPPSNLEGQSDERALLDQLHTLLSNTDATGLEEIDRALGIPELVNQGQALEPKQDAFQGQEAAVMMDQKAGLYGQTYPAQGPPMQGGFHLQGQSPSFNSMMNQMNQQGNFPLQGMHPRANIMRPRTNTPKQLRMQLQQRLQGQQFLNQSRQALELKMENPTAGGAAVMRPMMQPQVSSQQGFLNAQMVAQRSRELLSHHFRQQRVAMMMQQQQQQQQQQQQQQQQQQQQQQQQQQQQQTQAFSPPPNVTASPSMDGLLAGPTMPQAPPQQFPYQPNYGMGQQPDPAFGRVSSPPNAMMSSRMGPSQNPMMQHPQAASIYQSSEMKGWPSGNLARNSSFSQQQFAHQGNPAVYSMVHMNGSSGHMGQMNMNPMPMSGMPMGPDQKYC

[15] = target: Ubiquitin carboxyl-terminal hydrolase BAP1 (Homo sapiens, UniProt Q92560); assay: inhibition of BAP1 ubiquitin hydrolase activity – biochemical, dose response (AID 714); format: functional
Ubiquitin carboxyl-terminal hydrolase BAP1, sequence (Q92560 whole entry): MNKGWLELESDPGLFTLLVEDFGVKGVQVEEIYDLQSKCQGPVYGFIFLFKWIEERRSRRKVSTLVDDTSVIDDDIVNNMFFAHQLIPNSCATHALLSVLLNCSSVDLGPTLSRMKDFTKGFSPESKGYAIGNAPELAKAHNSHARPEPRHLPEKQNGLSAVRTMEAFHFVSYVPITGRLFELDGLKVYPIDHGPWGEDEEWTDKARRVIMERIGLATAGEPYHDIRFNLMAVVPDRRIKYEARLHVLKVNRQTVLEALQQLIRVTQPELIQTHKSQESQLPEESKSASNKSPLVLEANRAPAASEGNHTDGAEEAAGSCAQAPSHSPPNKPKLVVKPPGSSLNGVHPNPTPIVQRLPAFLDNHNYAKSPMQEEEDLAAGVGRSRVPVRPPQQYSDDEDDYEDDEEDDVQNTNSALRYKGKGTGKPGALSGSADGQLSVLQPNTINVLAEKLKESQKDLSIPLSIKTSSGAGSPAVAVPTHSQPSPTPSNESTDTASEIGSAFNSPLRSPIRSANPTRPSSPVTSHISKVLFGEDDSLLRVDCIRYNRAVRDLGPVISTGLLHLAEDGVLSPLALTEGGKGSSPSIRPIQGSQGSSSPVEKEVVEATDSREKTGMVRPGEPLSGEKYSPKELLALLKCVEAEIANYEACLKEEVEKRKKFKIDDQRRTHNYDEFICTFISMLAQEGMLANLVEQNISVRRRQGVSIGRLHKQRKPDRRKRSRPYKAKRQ

[16] = target: Peroxisome proliferator-activated receptor gamma/Nuclear receptor coactivator 2 (Homo sapiens, UniProt P37231); assay: TR-FRET dose response biochemical High Throughput Screening assay for agonists of the steroid receptor coactivator 2 (SRC-2) recruitment by the peroxisome proliferator-activated receptor gamma (PPAR gamma): non-selective agonists. [Related pubchem assays: 1297, 1032 ]; format: functional
[17] = target: RNA-editing ligase 1, mitochondrial (Trypanosoma brucei brucei, UniProt P86926); assay: inhibition of trypanosome RNA editing ligase – biochemical, fluorescence, Trypanosoma brucei, dose response (AID 1117295); format: functional
RNA-editing ligase 1, mitochondrial, sequence (P86926 whole entry): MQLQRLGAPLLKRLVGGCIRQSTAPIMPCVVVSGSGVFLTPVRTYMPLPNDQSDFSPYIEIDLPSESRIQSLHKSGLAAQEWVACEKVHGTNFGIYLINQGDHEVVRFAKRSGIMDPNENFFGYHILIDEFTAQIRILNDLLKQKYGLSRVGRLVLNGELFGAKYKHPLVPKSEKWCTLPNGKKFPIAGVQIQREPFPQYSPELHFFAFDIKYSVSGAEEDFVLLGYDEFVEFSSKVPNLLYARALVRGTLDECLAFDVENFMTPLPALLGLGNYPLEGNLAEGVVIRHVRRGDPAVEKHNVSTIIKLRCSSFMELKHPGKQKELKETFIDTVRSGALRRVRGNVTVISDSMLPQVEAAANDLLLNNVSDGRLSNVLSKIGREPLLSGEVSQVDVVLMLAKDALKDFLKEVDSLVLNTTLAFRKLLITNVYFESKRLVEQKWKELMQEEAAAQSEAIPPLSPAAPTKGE

[18] = target: T2, DNA repair protein RAD52 homolog (Homo sapiens, UniProt P43351); format: functional, biochemical
T2 sequence (P43351 whole entry): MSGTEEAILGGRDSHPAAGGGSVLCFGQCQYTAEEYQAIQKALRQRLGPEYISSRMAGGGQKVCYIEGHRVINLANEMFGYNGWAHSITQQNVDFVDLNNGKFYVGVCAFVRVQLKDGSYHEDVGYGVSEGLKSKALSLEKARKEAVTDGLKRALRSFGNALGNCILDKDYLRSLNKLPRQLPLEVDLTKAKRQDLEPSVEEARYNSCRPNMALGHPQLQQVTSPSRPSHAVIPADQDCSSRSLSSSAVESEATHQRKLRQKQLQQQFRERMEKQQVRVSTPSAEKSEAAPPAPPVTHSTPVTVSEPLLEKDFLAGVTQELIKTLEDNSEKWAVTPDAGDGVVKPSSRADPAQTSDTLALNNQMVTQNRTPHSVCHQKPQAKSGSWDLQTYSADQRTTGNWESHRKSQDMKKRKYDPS

[19] = SNU-C1 cell viability reduction, dose response, CellTiter-Glo luminescence (AID 1117323); format: functional, cell-based
[20] = cytotoxicity toward Colo320 cells – cell-based, CellTiter-Glo luminescence, IC50, dose response (AID 1117334); format: functional; settings: COLO 320
[21] = Reduced DLD-1 viability, concentration-response, CellTiter-Glo luminescence (AID 1117352); format: functional
[22] = glucagon-like peptide-1 release potency in STC-1, concentration-response, half-maximal inhibitory concentration in the STC-1 line (AID 1117345); format: functional, cell-based
[23] = CellTiter-Glo luminescence survival assay, SW480 colon tumor line, concentration-response curve, half-maximal inhibitory concentration (AID 1117338); format: functional
[24] = Potency on glucagon-like peptide 1 release, dose-response in NCI-H716 cell line, half maximal inhibitory concentration (AID 1117344); format: functional, cell-based
[25] = RKO cell viability reduction, dose response, CellTiter-Glo luminescence (AID 1117322); format: functional
[26] = HCT116 cell viability decrease, GSK3B pretreatment – CellTiter-Glo, IC50, dose response (AID 1117339); format: functional; settings: HCT-116
[27] = cytotoxicity toward HCT116 cells – cell-based, CellTiter-Glo luminescence, IC50, dose response (AID 1117332); format: functional; settings: HCT-116
[28] = cytotoxicity toward HT-29 cells – cell-based, CellTiter-Glo luminescence, IC50, dose response (AID 1117330); format: functional
[29] = Plasmodium falciparum Dd2 Sybr green parasite growth Measured in Cell-Based and Microorganism Combination System Using Plate Reader - 2153-01_Inhibitor_Dose_DryPowder_Activity_Set3.; format: functional
[30] = Dd2 parasite growth inhibition in erythrocytes – SYBR Green, dry powder samples, set 9, dose response (AID 1159568); format: functional, cell-based
[31] = growth inhibition of yeast DHODH-expressing 3D7 parasites – SYBR Green, dry powder samples, dose response (AID 1159570); format: functional, cell-based;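 further: parasite growth measured after 72 hours of compound exposure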
[32] = growth inhibition of PfATP4-mutant resistant parasites – NITD609-resistant line, SYBR Green, dry powder, dose response (AID 1159571); format: functional, cell-based;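 further: parasites synchronized at ring stage by sorbitol before testing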
[33] = P. falciparum Dd2 growth inhibitors, dose response, SYBR Green, cherry-picked samples (AID 1159567); format: functional, cell-based
[34] = Dd2 malaria parasite growth inhibition potency – SYBR Green, dry powder samples, dose response (AID 1159566); format: functional, cell-based;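 further: potency for growth inhibition with lower SYBR green DNA signal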

In the case of `C[C@H](O)C#Cc1ccc2c(c1)O[C@@H](CN(C)Cc1ccc(-c3ccccc3)cc1)[C@H](C)CN([C@H](C)CO)S2(=O)=O`, the AC50 [1] is reported as 46.9 µM (active), the AC50 [2] is reported as 50.8 µM (active) and the AC50 [3] is reported as 8.52 µM (active). For the same molecule, the AC50 [4] was 44.2 µM (active), the AC50 [5] was 34.8 µM (active) and the AC50 [6] was 9.51 µM (active). The AC50 [7] was 26.4 µM (active) and the AC50 (Paired box protein Pax-8) was 5.27 µM (active).
In the case of `CC1CC(=O)NN=C1c1ccc(NCC(C)(C)NCC(O)COc2cc(Cl)ccc2C#N)cc1` (stereo unspecified) [OBERADILOL], the IC50 [8] is reported as 15.2 µM (inactive) and the IC50 (cells [9]) is reported as > 33.3 µM (inactive).
With `Clc1ccc(C=Cc2ccccn2)c(Cl)c1` the EC50 [10] was > 67.6 µM (inactive), the EC50 (cells [11]) was > 67.6 µM (inactive) and the IC50 (Protein skinhead-1) was 4.24 µM (active).
With `O=C(CSc1nc2cc(Cl)ccc2s1)N1CCN(C(=O)c2ccco2)CC1` the CC50 [12] was > 40 µM (active).
With `O=C(Nc1nnc(-c2ccco2)s1)C1CCN(S(=O)(=O)c2ccc(Cl)cc2)CC1` the EC50 [13] was 56.6 µM (inactive), the EC50 [14] was > 79.4 µM (not active) and the IC50 [15] was > 50 µM (not active). The EC50 [16] was 31.4 µM (not active).
With `COc1ccccc1N(Cc1ccccc1)S(=O)(=O)c1cccc(C(=O)NC2CC(C)(C)NC(C)(C)C2)c1` the IC50 [17] was > 96.6 µM (inactive) and the AC50 [18] was 13.4 µM (active).
In the case of `Clc1ccc(C(Cn2ccnc2)OCc2c(Cl)cccc2Cl)c(Cl)c1` (stereo unspecified) [ISOCONAZOLE], the IC50 [19] is reported as 0.886 µM (active), the IC50 [20] is reported as 1.82 µM (active) and the IC50 [21] is reported as 2.36 µM (active). The IC50 [22] was > 40 µM (inactive), the IC50 [23] was 2.6 µM (active) and the IC50 [24] was > 40 µM (inactive). For the same molecule, the IC50 [25] was 4.01 µM (active), the IC50 [26] was 1.4 µM (active) and the IC50 [27] was 1.59 µM (active). For the same molecule, the IC50 [28] was 5 µM (inactive).
With `CO[C@@H]1CN(C)C(=O)c2ccc(NC(=O)c3ccc4c(c3)OCO4)cc2OC[C@@H](C)N(Cc2ccc3c(c2)OCO3)C[C@H]1C` the AC50 [29] was 1.92 µM (active), the AC50 [30] was 1.73 µM (active) and the AC50 [31] was 4.99 µM (active). For the same molecule, the AC50 [32] was 1.17 µM (active), the AC50 [33] was 1.11 µM (active) and the AC50 [34] was 0.279 µM (active).
